In PubChem BioAssay (NCI) one finds GI50 and TGI data, which are given here for 10 compounds.

Holding throughout (test): NCI-60 cell line screen, 48 h
The test system of test [1] is A549 NSCLC.
Test [2] has as its system COLO 205 colon.
Test [3] has as its system NCI-H226 lung.
Test [4] relates to NCI-H23 lung.
The subject of test [5] is OVCAR-3 ovarian.
The subject of test [6] is SF-295 CNS.
In test [7] the test system is SN12C renal.
For test [8], the system named is UACC-62 melanoma.

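Values below derive from 48-hour exposures of cells grown in 96-well plates, with endpoints linearly interpolated between the two concentrations bracketing the appropriate inhibition level. GI50: concentration for 50% inhibition of growth. The concentration for full growth arrest is given as TGI.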 A value given as a limit tells only on which side of the number the result lay.

In the case of `O=C(CCCN1CCOCC1)Nc1ccc(Cn2nnc3c2C(=O)c2nnn(Cc4ccc(NC(=O)CCCN5CCOCC5)cc4)c2C3=O)cc1`, the GI50 in test [1] is more than 100 µM; in test [2], 0.982 µM; in test [3] it was more than 100 µM; in test [4], 2.33 µM; in test [5] it was 0.348 µM; in test [6], more than 100 µM. In addition, the values for the GI50 in test [7] and in test [8] were 1.79 µM and 2.06 µM, respectively. Besides, the TGI in test [1] is more than 100 µM; in test [2] it was 2.43 µM; in test [3] it was more than 100 µM; in test [4] it was 5.63 µM; in test [5], 1.54 µM; in test [6], more than 100 µM. Moreover, the TGI in test [7] was found to be 3.67 µM; in test [8], 5.86 µM.

Regarding `C=CC(C=O)C1(O)CCOC(=O)/C1=C\N` (stereo unspecified), the GI50 was more than 100 µM in test [1]; more than 100 µM in test [2]; more than 100 µM in test [3]; 52.4 µM in test [4]; more than 100 µM in test [5]; more than 100 µM in test [6]. Also, the GI50 in test [7] and in test [8] was more than 100 µM each time. Moreover, the TGI in test [1], in test [2], in test [3], in test [4], in test [5] and in test [6] was more than 100 µM each time. Also, the TGI in test [7] and in test [8] was more than 100 µM each time.

In the case of `O=S(=O)(O)c1ccc(-c2nnc(-c3ccccn3)nc2-c2ccc(S(=O)(=O)O)o2)o1`, the TGI in test [1], in test [2], in test [3], in test [4], in test [5] and in test [6] was more than 100 µM in each case. Further, the TGI in test [7] and in test [8] was more than 100 µM throughout.

As for `CCN1C(NN)=NS(=O)(=O)c2ccccc21`, the TGI in test [1], in test [2], in test [3], in test [4], in test [5] and in test [6] was more than 100 µM each time. Also, the TGI in test [7] and in test [8] was more than 100 µM throughout.

Consider `CO/N=C(\C)c1cccc(Nc2cc(-c3ccccc3)nc3c(O)cccc23)c1`, for which the GI50 in test [1] was 5.99 µM; in test [2] it was 18.3 µM; in test [3], 19.8 µM; in test [4], 3.92 µM; in test [5], 2.34 µM; in test [6] it was 2.17 µM. In addition, the GI50 is 5.04 µM in test [7] and 6.01 µM in test [8]. In addition, the TGI in test [1] was 21.8 µM; in test [2], 46.1 µM; in test [3], more than 100 µM; in test [4], 24 µM; in test [5], 7.12 µM; in test [6], 5.55 µM. For the same compound, the TGI in test [7] turned out to be 24.5 µM; in test [8] it was 29.2 µM.

As to `O=C(CF)N(O)c1ccc(/C=C/c2ccccc2)cc1`, the GI50 in test [1] was 1.17 µM; in test [2], 5.83 µM; in test [3], 0.77 µM; in test [4], 3.39 µM; in test [5], 3.28 µM; in test [6], 1.74 µM. The GI50 in test [7] was 2.67 µM; in test [8] it was 1.81 µM. In addition, the TGI in test [1] was more than 100 µM; in test [2] it was more than 100 µM; in test [3] it was 3.24 µM; in test [4], 98.4 µM; in test [5] it was 19.7 µM; in test [6], 11.4 µM. Moreover, the results for the TGI in test [7] and in test [8] were more than 63.5 µM and 10.7 µM, respectively.

Regarding `C/C1=C/C2=CC(C)C[C@@H]2C(=O)[C@]2(C)C(=O)CC(C)(C)[C@H]2CC1=O` (stereo partly specified), the TGI in test [1], in test [2], in test [3], in test [4], in test [5] and in test [6] was more than 50 µM throughout. Besides, the TGI in test [7] and in test [8] was more than 50 µM each time.

As for `C/C(=C\C1=C(Cl)C(=O)c2ccccc2C1=O)C(=O)O`, the GI50 in test [1] was 21.9 µM; in test [2], 18.7 µM; in test [3], 19.6 µM; in test [4] it was 21.5 µM; in test [5], 19.4 µM; in test [6] it was 19 µM. Besides, the GI50 is 24.5 µM in test [7] and 17.2 µM in test [8]. Also, the TGI turned out to be 43 µM in test [1]; 34 µM in test [2]; 37.5 µM in test [3]; 45.7 µM in test [4]; 34.2 µM in test [5]; 33.4 µM in test [6]. Also, the TGI was 55.1 µM in test [7] and 31.5 µM in test [8].

Consider `CC/C=C\C/C=C\C[C@H](O)C/C=C1/C(=O)C=C[C@@H]1C/C=C\CCCC(=O)O`, for which the GI50 is 13.6 µM in test [1]; 3.78 µM in test [2]; 2.57 µM in test [3]; 4.09 µM in test [4]; 3.23 µM in test [5]; 7.86 µM in test [6]. For the same compound, the GI50 in test [7] was 3.6 µM; in test [8] it was 1.94 µM. The TGI in test [1] amounted to 56.6 µM; in test [2], 10.9 µM; in test [3], 5.86 µM; in test [4] it was 17.1 µM; in test [5], 12.7 µM; in test [6] it was 22.4 µM. In addition, the TGI in test [7] stood at 43.1 µM; in test [8] it was 8.02 µM.

As for `CN(C)c1ccc(/C=C(\C#N)c2nc3ccccc3n2C)cc1`, the GI50 was 4.53 µM in test [1]; 1.63 µM in test [2]; 9.22 µM in test [3]; 4.51 µM in test [4]; 1.33 µM in test [5]; 1.9 µM in test [6]. The GI50 in test [7] was 11.6 µM; in test [8], 2.04 µM. The TGI in test [1] is more than 100 µM; in test [2], 9.26 µM; in test [3] it was more than 81.3 µM; in test [4], more than 88.5 µM; in test [5] it was 3.73 µM; in test [6], 16.9 µM. Further, the TGI was more than 100 µM in test [7] and 37.2 µM in test [8].
